≈ marks a conversion by molar mass, not a printed value. Where “and” joins values, the source holds several entries; their conditions need not be identical. Equal entries are not always repeated.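 1) Cells in 96-well plates. 2) Compound, 48 h, 5 concentrations. 3) Linear interpolation between surrounding doses. 4) Unreached endpoint = highest concentration. At the GI50, growth is halved. TGI marks complete inhibition of growth.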

We go through 14 compounds from PubChem BioAssay (NCI).

Among the test systems are SK-MEL-2 melanoma; NCI-H522 lung; UACC-257 melanoma; SK-MEL-5 melanoma; SNB-75 CNS; KM12 colon; A549 NSCLC; UACC-62 melanoma; OVCAR-8 ovarian.
What all share (assay): NCI tumour cell line growth inhibition, 48 h

In the case of `CN(C)CCC1(C2=CCCC2)CC/C(=C\c2ccccc2)C1=O` (stereo unspecified), the TGI came out at 31 µM with SK-MEL-2 melanoma; 27.4 µM with NCI-H522 lung; 28.5 µM with UACC-257 melanoma; 27.8 µM in the experiment on SK-MEL-5 melanoma; 35.9 µM in the experiment with SNB-75 CNS; 28.8 µM in the experiment on KM12 colon. In addition, the TGI in the experiment with A549 NSCLC came out at 41.9 µM; with UACC-62 melanoma, 26.6 µM; with OVCAR-8 ovarian, 29.6 µM.
For the compound `CC[C@]12C=CCN3CCC4(c5cc([C@@]6(C(=O)OC)CC7CN(CCc8c6[nH]c6ccccc86)C[C@@H]6CCC[C@H]76)c(OC)cc5N(C)C4[C@](O)(C(=O)OC)C1OC(C)=O)C32` (stereo partly specified), the TGI is more than 6.89 µM in the experiment on SK-MEL-2 melanoma; 0.113 µM with NCI-H522 lung; more than 10 µM with UACC-257 melanoma; 0.181 µM with SK-MEL-5 melanoma; more than 10 µM with A549 NSCLC; more than 10 µM in the experiment on UACC-62 melanoma. This compound registered a TGI in the experiment on OVCAR-8 ovarian of more than 4.81 µM.
With `CC1=NN(C(=O)Cc2ccccc2)C(=O)/C1=C\c1ccco1`, the TGI in the experiment with SK-MEL-2 melanoma, in the experiment with NCI-H522 lung, with UACC-257 melanoma, in the experiment with SK-MEL-5 melanoma, with SNB-75 CNS and in the experiment with KM12 colon was more than 100 µM each time. For the same compound, the TGI in the experiment with A549 NSCLC and in the experiment with OVCAR-8 ovarian was more than 100 µM in each case.
Turning to `NC(N)=Nc1nc2ccccc2[nH]1`, the GI50 in the experiment on SK-MEL-2 melanoma is 95 µg/mL (≈ 542 µM); in the experiment on NCI-H522 lung, 5.66 µg/mL (≈ 32.3 µM); with UACC-257 melanoma it was 72.4 µg/mL; with SK-MEL-5 melanoma, 31.1 µg/mL; with SNB-75 CNS, 150 µg/mL; with KM12 colon it was 53.1 µg/mL (≈ 303 µM). For the same compound, the GI50 was 61 µg/mL in the experiment on A549 NSCLC, 36.2 µg/mL with UACC-62 melanoma and 76.5 µg/mL with OVCAR-8 ovarian. The TGI in the experiment with SK-MEL-2 melanoma is more than 150 µg/mL; in the experiment with NCI-H522 lung it was 46.5 µg/mL; with UACC-257 melanoma, more than 150 µg/mL; in the experiment with SK-MEL-5 melanoma it was 99 µg/mL; in the experiment on SNB-75 CNS, more than 150 µg/mL; with KM12 colon, more than 150 µg/mL. Also, the TGI in the experiment with A549 NSCLC, in the experiment with UACC-62 melanoma and with OVCAR-8 ovarian was more than 150 µg/mL in each case.
Regarding `COc1ccc([C@@H]2CC(=O)NCCCCNCCCN2)cc1`, the TGI with SK-MEL-2 melanoma, with NCI-H522 lung, in the experiment on UACC-257 melanoma, in the experiment with SK-MEL-5 melanoma, with SNB-75 CNS and in the experiment on KM12 colon was more than 100 µM each time. Moreover, the TGI in the experiment on A549 NSCLC, in the experiment with UACC-62 melanoma and in the experiment with OVCAR-8 ovarian was more than 100 µM each time.
With `BrC12c3ccccc3Sc3ccccc3C1(Br)c1ccccc12` (stereo unspecified), the TGI was determined as 34.5 µM in the experiment with SK-MEL-2 melanoma; 44.6 µM in the experiment on NCI-H522 lung; 86.3 µM with UACC-257 melanoma; 30.8 µM in the experiment with SK-MEL-5 melanoma; 95.8 µM in the experiment on SNB-75 CNS; 38.9 µM with KM12 colon. In addition, the TGI in the experiment with A549 NSCLC is more than 100 µM; with UACC-62 melanoma, 46.6 µM; with OVCAR-8 ovarian, more than 100 µM.
On to `CCOC(=O)/C=C/c1ccccn1`, for which the TGI with SK-MEL-2 melanoma, with NCI-H522 lung, with UACC-257 melanoma, in the experiment with SK-MEL-5 melanoma, in the experiment with SNB-75 CNS and with KM12 colon was more than 100 µM in each case. Also, the TGI with A549 NSCLC, in the experiment on UACC-62 melanoma and with OVCAR-8 ovarian was more than 100 µM throughout.
With `CC(=O)NC(CCCCNC(=O)N(C)N=O)C(=O)NCc1ccccc1` (stereo unspecified), the TGI in the experiment with SK-MEL-2 melanoma, with NCI-H522 lung, in the experiment with UACC-257 melanoma, in the experiment with SK-MEL-5 melanoma, in the experiment with SNB-75 CNS and in the experiment with KM12 colon was more than 100 µM each time. Besides, the TGI in the experiment on A549 NSCLC, in the experiment with UACC-62 melanoma and in the experiment with OVCAR-8 ovarian was more than 100 µM each time.
Consider `S=C1SC(c2ccc(Cl)cc2)(c2ccc(Cl)cc2)c2ccccc21`, for which the TGI in the experiment on NCI-H522 lung, in the experiment on UACC-257 melanoma, in the experiment on SK-MEL-5 melanoma, in the experiment on SNB-75 CNS, in the experiment on KM12 colon and in the experiment on A549 NSCLC was more than 100 µM in each case. Besides, the TGI in the experiment on UACC-62 melanoma and in the experiment with OVCAR-8 ovarian was more than 100 µM each time.
Turning to `O=C1C[C@H]2[C@H](c3ccc(Br)cc3)[C@H]3C(=O)c4ccccc4NC(=O)[C@@H]3[C@@]2(O)c2ccccc2N1`, the TGI is 69.3 µM with NCI-H522 lung; 54.1 µM in the experiment on UACC-257 melanoma; 62 µM in the experiment with SK-MEL-5 melanoma; 41.1 µM with SNB-75 CNS; 43.8 µM in the experiment with KM12 colon; more than 100 µM with A549 NSCLC. Besides, the TGI is 61.5 µM in the experiment with UACC-62 melanoma and more than 100 µM with OVCAR-8 ovarian.
Regarding `COc1cc([C@@H]2c3cc4c(c(O)c3C[C@H]3COC(=O)[C@@H]32)OCO4)cc(OC)c1O`, the TGI with SK-MEL-2 melanoma is 6.56 µM; with UACC-257 melanoma, more than 20 µM; in the experiment on SK-MEL-5 melanoma, 0.00624 µM and < 0.02 µM; with SNB-75 CNS it was more than 78.6 µM; in the experiment on KM12 colon, more than 200 µM; in the experiment on A549 NSCLC, more than 200 µM. Besides, the TGI in the experiment with UACC-62 melanoma and in the experiment on OVCAR-8 ovarian was more than 200 µM in each case. For the same compound, the GI50 with UACC-257 melanoma is 0.005 µM; with SK-MEL-5 melanoma it was 0.00221 µM; in the experiment with SNB-75 CNS, 0.00421 µM; with A549 NSCLC it was 0.00385 µM; in the experiment with UACC-62 melanoma, 0.00454 µM; in the experiment on OVCAR-8 ovarian, 0.0053 µM.
For `CCN(CC)c1nc(N(C)C)c2cc(OC)ccc2n1`, the TGI in the experiment with SK-MEL-2 melanoma is more than 100 µM; in the experiment on NCI-H522 lung, 66.9 µM; in the experiment on UACC-257 melanoma, 81.3 µM; in the experiment with SK-MEL-5 melanoma, 34.2 µM; in the experiment with KM12 colon, more than 100 µM; in the experiment on A549 NSCLC it was more than 100 µM. For the same compound, the TGI in the experiment on UACC-62 melanoma and in the experiment with OVCAR-8 ovarian was more than 100 µM each time.
Take `N#Cc1c2nc3ccccc3nc2n2ccc3ccccc3c12`: the TGI in the experiment with SK-MEL-2 melanoma, in the experiment on NCI-H522 lung, with UACC-257 melanoma, in the experiment with SK-MEL-5 melanoma, with SNB-75 CNS and in the experiment with KM12 colon was more than 100 µM in each case. Besides, the TGI in the experiment on A549 NSCLC and in the experiment on OVCAR-8 ovarian was more than 100 µM each time.
In the case of `COC(=O)NN1C(C)=C(C(=O)OC)C2(CCOC2=O)C1(C)O` (stereo unspecified), the TGI in the experiment with SK-MEL-2 melanoma, in the experiment with NCI-H522 lung, with UACC-257 melanoma, with KM12 colon, with A549 NSCLC and in the experiment with UACC-62 melanoma was more than 100 µM throughout. Besides, the TGI in the experiment with OVCAR-8 ovarian was more than 100 µM.
